Experimental data published in paper PMC3930709, “Selective Activation of hTRPV1 by N-Geranyl Cyclopropylcarboxamide, an Amiloride-Insensitive Salt Taste Enhancer” (PLoS ONE, 2014).

What was measured:
Assay type in all cases: cell-based
hTRPV1 [1] = target: T1, hTRPV1 (Homo sapiens, UniProt Q8NER1); assay: Ca2+ imaging (Fura-2 AM) of hTRPV1-expressing HEK293T cells; settings: NGCC 30 µM; RR 30 µM, CPZ 1 µM
T1 construct: expressed in transfected cells; host or cells: HEK293T
Experimental: hTRPV1 was constructed by amplification of the hTRPV1 region (NCBI accession number: NG_029716.1) and cloned into pEAK10 vector (Edge Biosystems, Gaithersburg, MD, USA). The hTRPV1 construct was amplified by PCR and the nucleotide sequence of the hTRPV1 gene was confirmed by sequencing with an ABI 3130 DNA genetic analyzer (Applied Biosystems, Foster City, CA, USA). […] After 6 h, transfected cells were seeded onto 96-well black-wall plate (BD Falcon Labware, Franklin Lakes, NJ, USA) for 18-26 h prior to their use in an experiment. Mock-transfected HEK293T cells, hTRPV1-expressing HEK293T cells, non-hTRPA1-expressing Flp-In 293 cells, and hTRPA1-expressing Flp-In 293 cells grown in 96-well black-wall plates were rinsed with assay buffer (130 mM NaCl, 10 mM glucose, 5 mM KCl, 2 […]2, 1.2 mM MgCl2, and 10 mM HEPES, pH 7.4) and loaded with 5 μM Fura-2 AM (Invitrogen) for 30 min at 27°C. […] The fluorescence intensities of Fura-2 excited at 340 and 380 nm were simultaneously measured at 510 nm using a computer-controlled filter changer (Lambda DG4; Sutter, San Rafael, CA, USA), an Andor Luca CCD camera (Andor Technology, Belfast, UK), and an inverted fluorescence microscope (IX-71; Olympus, Tokyo, Japan). Intracellular calcium images were recorded every 3-s for 60-s and analyzed using MetaFluor software (Molecular Devices, Sunnyvale, CA, USA).

hTRPV1 [2] = target: T1, hTRPV1; assay: Whole-cell patch clamp recording, hTRPV1-expressing HEK293T cells
Experimental: Mouse ASIC1a (mASIC1a) was a kind gift from John A. Wemmie (University of Iowa, IA, USA). For electrophysiological experiments, HEK293T cells were cultured in DMEM supplemented with 10% FBS and 0.2% penicillin/streptomycin and transiently transfected using Lipofectamine 2000 (Invitrogen) with various cDNAs. For TRPV1 channel expression, cells were transfected with hTRPV1, for ASIC1a homomeric channel expression, cells were transfected with mASIC1a. When needed, 0.1–0.2 µg of cDNA encoding tetrameric red fluorescence protein (DsRed) was co-transfected with the cDNA as a marker for successfully transfected cells. For non-transfected cells, cells were transfected with 0.1–0.2 µg of cDNA encoding DsRed alone. The next day, cells were plated onto poly-L-lysine-coated coverslip chips, and fluorescent cells were studied within 1–2 days.
(§1) The whole-cell configuration was used to voltage-clamp at room temperature (22–25°C). Electrodes pulled from glass micropipette capillaries (Sutter Instrument) had resistances of 2–2.5 MΩ, and series resistance errors were compensated >60%. Fast and slow capacitances were compensated before the application of test-pulse. Recordings were performed using aHEKAEPC-10 amplifier with pulse software (HEKA Elektronik). The pipette solution contained: 140 mM KCl, 5 mM MgCl2, 10 mM HEPES, 0.1 mM 1,2-bis(2-aminophenoxy) ethane N,N,N’,N’-tetraacetic acid(BAPTA), 3 mM Na2ATP, and 0.1 mM Na3GTP, adjusted to pH 7.4 with KOH. The external Ringer’s solution used for recording TRPV1 and TRPA1 currents contained: 150 mM NaCl, 5 mM KCl, 1 mM MgCl2, 2 mM EGTA, 10 mM Glucose, and 10 mM HEPES, adjusted to pH 7.4 with NaOH. TRPV1 and TRPA1 currents were recorded by holding the cell at −80 mV. The external Ringer’s solution used for recording ASIC current contained: 160 mM NaCl, 5 mM KCl, 1 mM MgCl2, 2 mM CaCl2, and 10 mM HEPES, adjusted to pH 7.4 with tetramethylammonium hydroxide. For acidic solution of pH 6.0, HEPES was replaced with MES. ASIC currents were recorded by holding the cell at −70 mV. Reagents were obtained as follows: BAPTA, Na2ATP, Na3GTP, EGTA, and tetramethylammonium hydroxide (Sigma), HEPES (Calbiochem), MES (Alfa Aesar), and other chemicals (Merck).

hTRPV1 [3] = target: T1, hTRPV1; assay: Measurement of Ca2+ influx (Fluo-4 AM, FlexStation III) in hTRPV1-expressing cells; settings: RR 30 µM or CPZ 1 µM added with agonist
Experimental: hTRPV1 was constructed by amplification of the hTRPV1 region (NCBI accession number: NG_029716.1) and cloned into pEAK10 vector (Edge Biosystems, Gaithersburg, MD, USA). The hTRPV1 construct was amplified by PCR and the nucleotide sequence of the hTRPV1 gene was confirmed by sequencing with an ABI 3130 DNA genetic analyzer (Applied Biosystems, Foster City, CA, USA). […] After 6 h, transfected cells were seeded onto 96-well black-wall plate (BD Falcon Labware, Franklin Lakes, NJ, USA) for 18–26 h prior to their use in an experiment. The ligand-induced changes on cytosolic Ca^2+ level were monitored by a FlexStation III microplate reader (Molecular Devices). Fluo-4 AM (5 µM, Molecular Probes, Eugene, OR, USA) in assay buffer was loaded to the cells in 96-well black-wall plates for 30 min at 27°C. After dye treatment, each chemical was added to each well at 17 s and changes on intracellular Ca^2+ level were monitored by relative fluorescence units (ΔRFU, Ex = 485 nm; Em = 516 nm) for 120 s. […] The responses from at least three wells receiving the same stimulus were averaged. Plots of amplitude versus concentration were fitted using the Hill equation.

hTRPA1 = target: T2, hTRPA1 (Homo sapiens, UniProt O75762); assay: Whole-cell patch clamp recording, cells stably expressing hTRPA1; settings: AITC 100 µM; NGCC 10^3 µM; holding -80 mV
T2 construct: expressed in transfected cells
Experimental: Flp-In 293 cell lines stably expressing hTRPA1constructed as previously reported was a gift from the professor Takumi Misaka at University of Tokyo. The hTRPA1-expressing cells were cultured in DMEM containing 10% FBS and 0.02% hygromycin B (Invitrogen). Flp-In 293 cell lines were maintained in DMEM containing 10% FBS. All cells were incubated at 37°C in a humidified atmosphere of 5% CO2.
as §1

αβγ hENaC = target: T3, αβγ hENaC (Homo sapiens, UniProt P37088+P51168+P51170); assay: Membrane potential assay (FMP dye) on αβγ hENaC-expressing cells; settings: continuous presence of Bz (0.01 µM)
T3 construct: GFP; host or cells: HEK293T
T3 sequence (P37088 1-669): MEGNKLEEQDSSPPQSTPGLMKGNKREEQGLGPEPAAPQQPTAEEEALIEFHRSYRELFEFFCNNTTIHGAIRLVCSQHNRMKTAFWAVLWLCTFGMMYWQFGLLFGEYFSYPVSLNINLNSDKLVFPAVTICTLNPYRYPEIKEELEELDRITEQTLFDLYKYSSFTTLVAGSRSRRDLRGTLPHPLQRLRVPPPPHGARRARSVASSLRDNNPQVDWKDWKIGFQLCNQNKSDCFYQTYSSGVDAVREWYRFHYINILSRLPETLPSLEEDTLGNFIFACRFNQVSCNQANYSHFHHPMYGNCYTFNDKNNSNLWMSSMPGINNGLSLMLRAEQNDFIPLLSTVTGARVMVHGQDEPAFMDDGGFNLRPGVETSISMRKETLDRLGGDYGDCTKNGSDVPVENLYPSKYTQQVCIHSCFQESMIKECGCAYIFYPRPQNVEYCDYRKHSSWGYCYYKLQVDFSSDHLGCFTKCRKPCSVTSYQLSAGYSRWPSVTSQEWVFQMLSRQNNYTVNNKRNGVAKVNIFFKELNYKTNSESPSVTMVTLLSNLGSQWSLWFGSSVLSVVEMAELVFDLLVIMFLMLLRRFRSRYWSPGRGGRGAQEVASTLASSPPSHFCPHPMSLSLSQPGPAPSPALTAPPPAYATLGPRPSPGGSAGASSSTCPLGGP
T3 sequence (P51168 1-640): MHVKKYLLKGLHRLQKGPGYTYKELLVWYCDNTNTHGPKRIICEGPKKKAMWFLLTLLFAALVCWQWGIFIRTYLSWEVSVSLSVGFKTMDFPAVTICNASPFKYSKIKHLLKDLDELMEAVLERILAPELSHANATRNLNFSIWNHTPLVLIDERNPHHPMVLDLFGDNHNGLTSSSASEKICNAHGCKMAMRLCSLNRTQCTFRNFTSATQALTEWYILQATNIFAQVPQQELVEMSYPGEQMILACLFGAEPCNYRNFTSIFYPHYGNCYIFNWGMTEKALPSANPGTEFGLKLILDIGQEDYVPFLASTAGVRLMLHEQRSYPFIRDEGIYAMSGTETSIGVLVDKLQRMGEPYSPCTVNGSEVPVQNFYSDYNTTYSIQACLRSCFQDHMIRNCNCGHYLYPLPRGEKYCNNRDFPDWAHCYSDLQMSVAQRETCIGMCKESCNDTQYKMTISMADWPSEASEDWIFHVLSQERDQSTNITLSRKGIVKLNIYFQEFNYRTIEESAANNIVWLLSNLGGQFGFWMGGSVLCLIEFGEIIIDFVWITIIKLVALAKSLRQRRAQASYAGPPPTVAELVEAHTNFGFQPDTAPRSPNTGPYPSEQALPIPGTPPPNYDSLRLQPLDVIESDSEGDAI
T3 sequence (P51170 1-649): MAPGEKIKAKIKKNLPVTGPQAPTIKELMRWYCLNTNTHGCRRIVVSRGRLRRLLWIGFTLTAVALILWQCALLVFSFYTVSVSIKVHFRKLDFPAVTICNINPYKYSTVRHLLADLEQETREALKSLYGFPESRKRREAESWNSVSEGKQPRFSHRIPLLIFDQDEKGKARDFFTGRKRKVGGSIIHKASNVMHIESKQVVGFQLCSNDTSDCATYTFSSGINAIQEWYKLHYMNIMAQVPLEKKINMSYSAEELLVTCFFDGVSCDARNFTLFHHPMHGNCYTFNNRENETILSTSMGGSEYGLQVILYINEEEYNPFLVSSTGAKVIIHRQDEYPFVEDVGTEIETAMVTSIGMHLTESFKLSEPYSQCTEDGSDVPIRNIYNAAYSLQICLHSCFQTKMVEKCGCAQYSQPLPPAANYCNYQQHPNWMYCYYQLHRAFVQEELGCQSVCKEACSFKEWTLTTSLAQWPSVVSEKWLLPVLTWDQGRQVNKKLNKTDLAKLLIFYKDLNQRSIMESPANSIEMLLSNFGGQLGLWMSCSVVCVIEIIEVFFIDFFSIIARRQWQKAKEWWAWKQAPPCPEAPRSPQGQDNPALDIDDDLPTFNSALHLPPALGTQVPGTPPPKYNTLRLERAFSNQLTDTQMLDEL
Experimental: The α, β, and γ hENaC subunits were cloned from OriGene (Rockville, MD; GenBank accession number […] for SCNN1A, NM_000336 for SCNN1B and NM_001039 for SCNN1G). α, GFP-tagged β, and γ hENaC were cloned into a CMV promoter-based vector and expressed constitutively. The HEK293T cells were seeded onto a 35 mm dish and transfected with α, β, and γ hENaC expression plasmid using Lipofectamine 2000 (Invitrogen). Then, transfected cells were seeded onto 96-well black-wall plate for 18–26 h prior to their use in an experiment.
hENaC-expressing cells were characterized using FLIPER Membrane Potential (FMP) Assay Kit (Molecular Devices Corporation, Sunnyvale, CA, USA). In this assay, changes in the membrane potential were quantified via fluorescence change caused by FMP dye. The hENaC-expressing cells were washed with assay buffer (containing: 130 mM NaCl, 10 mM glucose, 5 mM KCl, 2 mM CaCl2, 1.2 mM MgCl2, and 10 mM HEPES, pH adjusted to 7.4 with NaOH) and subsequently, FMP blue-dye in assay buffer was loaded into the cells at room temperature for 30 min. After dye treatment, S3969 (0.03−10 µM), an ENaC agonist, S3969+Bz (ENaC antagonist, 0.01 µM), or NGCC (0.01−10 µM) was treated to hENaC-expressing cells. The plate was assayed in a FlexStation III plate reader (Molecular devices Corporation) by excitation at 530 nm and measuring the emission at 560 nm.

[4] = first pulse normalized to 1.0, n = 4

T1 sequence (Q8NER1 whole entry): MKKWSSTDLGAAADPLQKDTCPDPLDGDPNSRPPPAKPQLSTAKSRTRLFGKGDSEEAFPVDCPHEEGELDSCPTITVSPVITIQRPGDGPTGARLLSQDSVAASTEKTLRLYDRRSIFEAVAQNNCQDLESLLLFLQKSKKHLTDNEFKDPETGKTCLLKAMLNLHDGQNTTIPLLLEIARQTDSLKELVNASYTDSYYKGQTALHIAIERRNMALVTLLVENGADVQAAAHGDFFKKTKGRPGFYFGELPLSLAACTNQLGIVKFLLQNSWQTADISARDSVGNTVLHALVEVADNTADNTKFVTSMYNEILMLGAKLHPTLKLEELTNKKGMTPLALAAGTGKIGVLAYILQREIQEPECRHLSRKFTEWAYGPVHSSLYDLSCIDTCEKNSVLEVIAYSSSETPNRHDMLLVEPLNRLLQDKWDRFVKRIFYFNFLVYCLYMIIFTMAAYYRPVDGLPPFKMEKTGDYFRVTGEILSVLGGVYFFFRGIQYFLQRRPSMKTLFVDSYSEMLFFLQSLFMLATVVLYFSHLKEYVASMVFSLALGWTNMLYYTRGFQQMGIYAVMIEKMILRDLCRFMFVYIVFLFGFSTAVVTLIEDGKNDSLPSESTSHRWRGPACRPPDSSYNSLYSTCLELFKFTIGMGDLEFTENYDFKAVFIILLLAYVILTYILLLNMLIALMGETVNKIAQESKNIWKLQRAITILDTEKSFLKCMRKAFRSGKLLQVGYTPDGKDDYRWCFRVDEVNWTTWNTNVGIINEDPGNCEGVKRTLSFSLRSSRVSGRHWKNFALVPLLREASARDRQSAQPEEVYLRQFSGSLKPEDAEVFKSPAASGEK
T2 sequence (O75762 whole entry): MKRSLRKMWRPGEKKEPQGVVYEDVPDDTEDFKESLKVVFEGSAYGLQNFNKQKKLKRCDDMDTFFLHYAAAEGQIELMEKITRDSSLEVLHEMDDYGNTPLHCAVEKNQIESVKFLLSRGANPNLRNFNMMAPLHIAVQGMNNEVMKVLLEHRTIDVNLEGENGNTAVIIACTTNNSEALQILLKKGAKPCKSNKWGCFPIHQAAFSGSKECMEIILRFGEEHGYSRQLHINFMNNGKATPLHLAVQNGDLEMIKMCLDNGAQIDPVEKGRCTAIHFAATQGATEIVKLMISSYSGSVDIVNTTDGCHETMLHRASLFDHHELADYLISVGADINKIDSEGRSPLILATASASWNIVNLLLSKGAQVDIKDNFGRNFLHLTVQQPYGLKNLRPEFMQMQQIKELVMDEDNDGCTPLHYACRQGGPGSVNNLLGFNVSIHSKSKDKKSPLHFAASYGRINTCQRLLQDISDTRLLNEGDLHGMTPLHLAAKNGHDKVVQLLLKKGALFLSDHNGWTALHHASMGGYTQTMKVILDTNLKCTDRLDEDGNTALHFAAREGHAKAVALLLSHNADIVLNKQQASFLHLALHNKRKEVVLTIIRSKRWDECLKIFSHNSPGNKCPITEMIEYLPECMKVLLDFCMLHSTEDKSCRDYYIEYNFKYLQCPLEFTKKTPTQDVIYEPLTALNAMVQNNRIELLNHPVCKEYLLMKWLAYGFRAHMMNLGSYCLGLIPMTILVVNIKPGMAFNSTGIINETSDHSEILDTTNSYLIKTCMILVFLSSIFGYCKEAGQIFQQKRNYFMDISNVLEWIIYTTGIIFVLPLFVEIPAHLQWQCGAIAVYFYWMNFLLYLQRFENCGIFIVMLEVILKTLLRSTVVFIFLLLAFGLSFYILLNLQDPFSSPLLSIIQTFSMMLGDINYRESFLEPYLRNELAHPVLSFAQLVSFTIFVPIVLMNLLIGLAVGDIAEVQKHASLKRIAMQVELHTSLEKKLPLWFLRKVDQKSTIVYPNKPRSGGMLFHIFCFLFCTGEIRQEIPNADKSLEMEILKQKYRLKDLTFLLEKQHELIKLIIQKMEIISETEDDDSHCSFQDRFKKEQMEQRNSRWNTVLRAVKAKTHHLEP

How did the “block of NGCC-induced Ca2+ influx in hTRPV1-expressing cells” value (hTRPV1 [1]) turn out when `Oc1cc2c(cc1O)CN(C(=S)NCCc1ccc(Cl)cc1)CCC2` [CPZ, capsazepine] was run?
Its value is “blocked NGCC activity to baseline levels”.

What about the “block of capsaicin-induced current” value (hTRPV1 [2]; CPZ 1 µM preincubation 20 seconds, capsaicin 100 nM) of the same compound?
Its value is “blocked”.

And the “normalized current density of NGCC-induced current after wash out of CPZ” value (hTRPV1 [2]; [4])?
Its value is 0.61±0.12.

And the “normalized current density of NGCC-induced current under CPZ” value (hTRPV1 [2]; [4])?
Its value is 0.12±0.05.

And the “block of capsaicin- and NGCC-induced hTRPV1 activation (dose-response)” value (hTRPV1 [3])?
Its value is “blocked the effects of capsaicin and NGCC”.

How did the “inward current in hTRPA1-expressing cells” value (hTRPA1) turn out when `C=CCN=C=S` [AITC, Allylisothiocyanate] was run?
Its value is “evoked an inward current”.

For `NC(=NCc1ccccc1)NC(=O)c1nc(Cl)c(N)nc1N` [Bz, benzamil], which “inhibition of S3969 activity on αβγ hENaC-expressing cells” value (αβγ hENaC) is on record?
The value was “No effect of S3969 was observed”.
